Laboratory results taken from the CheMixHub viscosity set.

Experiment: xn = mol fraction of the nth substance listed

OCCOCCOCCO + O
Conditions | viscosity [mPa·s]
293.15 K, 100 kPa, x2 = 0.05 | 46.03
293.15 K, 100 kPa, x2 = 0.094 | 44.8
298.15 K, 100 kPa, x2 = 0.014 | 37.14
298.15 K, 100 kPa, x2 = 0.094 | 34.66
298.15 K, 101.33 kPa, x1 = 0.0824 | 3.65
298.15 K, 101.33 kPa, x1 = 0.1678 | 8.7
298.15 K, 101.33 kPa, x1 = 0.35 | 19.77
303.15 K, 100 kPa, x2 = 0.05 | 28.19
303.15 K, 100 kPa, x2 = 0.094 | 27.25
303.15 K, 100 kPa, x2 = 0.112 | 27.95
303.15 K, 101 kPa, x1 = 0.05023 | 2.114
303.15 K, 101 kPa, x1 = 0.1004 | 4.102
303.15 K, 101 kPa, x1 = 0.1518 | 6.604
303.15 K, 101 kPa, x1 = 0.2006 | 9.27
303.15 K, 101 kPa, x1 = 0.2528 | 11.91
303.15 K, 101 kPa, x1 = 0.2995 | 14.77
303.15 K, 101 kPa, x1 = 0.3928 | 18.53
303.15 K, 101 kPa, x1 = 0.5013 | 21.84
303.15 K, 101 kPa, x1 = 0.5995 | 24.34
303.15 K, 101 kPa, x1 = 0.6648 | 25.69
303.15 K, 101 kPa, x1 = 0.7981 | 27.13
303.15 K, 101 kPa, x1 = 0.8445 | 27.86
303.15 K, 101 kPa, x1 = 0.8998 | 28.37
303.15 K, 101 kPa, x1 = 0.954 | 28.74
303.15 K, 101.33 kPa, x1 = 0.0004 | 0.781
303.15 K, 101.33 kPa, x1 = 0.0008 | 0.788
303.15 K, 101.33 kPa, x1 = 0.0014 | 0.798
303.15 K, 101.33 kPa, x1 = 0.0024 | 0.82
303.15 K, 101.33 kPa, x1 = 0.0056 | 0.875
303.15 K, 101.33 kPa, x1 = 0.011 | 0.986
303.15 K, 101.33 kPa, x1 = 0.0317 | 1.48
303.15 K, 101.33 kPa, x1 = 0.0563 | 2.254
303.15 K, 101.33 kPa, x1 = 0.0988 | 4.058
303.15 K, 101.33 kPa, x1 = 0.1954 | 8.931
303.15 K, 101.33 kPa, x1 = 0.2932 | 14.1
303.15 K, 101.33 kPa, x1 = 0.3871 | 18.23
303.15 K, 101.33 kPa, x1 = 0.5032 | 22.21
303.15 K, 101.33 kPa, x1 = 0.5991 | 24.2
303.15 K, 101.33 kPa, x1 = 0.6914 | 26.06
303.15 K, 101.33 kPa, x1 = 0.7941 | 27.17
308.15 K, 100 kPa, x2 = 0.05 | 22.55
308.15 K, 100 kPa, x2 = 0.094 | 21.88
308.15 K, 100 kPa, x2 = 0.112 | 22.44
308.15 K, 101 kPa, x1 = 0.05023 | 1.848
308.15 K, 101 kPa, x1 = 0.1004 | 3.491
308.15 K, 101 kPa, x1 = 0.1518 | 5.543
308.15 K, 101 kPa, x1 = 0.2006 | 7.668
308.15 K, 101 kPa, x1 = 0.2528 | 9.722
308.15 K, 101 kPa, x1 = 0.2995 | 11.99
308.15 K, 101 kPa, x1 = 0.3928 | 14.94
308.15 K, 101 kPa, x1 = 0.5013 | 17.51
308.15 K, 101 kPa, x1 = 0.5995 | 19.48
308.15 K, 101 kPa, x1 = 0.6648 | 20.58
308.15 K, 101 kPa, x1 = 0.7981 | 21.8
308.15 K, 101 kPa, x1 = 0.8445 | 22.32
308.15 K, 101 kPa, x1 = 0.8998 | 22.65
308.15 K, 101.33 kPa, x1 = 0.0004 | 0.707
308.15 K, 101.33 kPa, x1 = 0.0008 | 0.714
308.15 K, 101.33 kPa, x1 = 0.0014 | 0.725
308.15 K, 101.33 kPa, x1 = 0.0024 | 0.736
308.15 K, 101.33 kPa, x1 = 0.0056 | 0.787
308.15 K, 101.33 kPa, x1 = 0.011 | 0.877
308.15 K, 101.33 kPa, x1 = 0.0317 | 1.298
308.15 K, 101.33 kPa, x1 = 0.0563 | 1.934
308.15 K, 101.33 kPa, x1 = 0.0988 | 3.33
308.15 K, 101.33 kPa, x1 = 0.1954 | 7.273
308.15 K, 101.33 kPa, x1 = 0.2932 | 11.27
308.15 K, 101.33 kPa, x1 = 0.3871 | 14.47
313.15 K, 100 kPa, x2 = 0.014 | 19.23
313.15 K, 100 kPa, x2 = 0.05 | 18.39
313.15 K, 100 kPa, x2 = 0.094 | 17.83
313.15 K, 101 kPa, x1 = 0.05023 | 1.618
313.15 K, 101 kPa, x1 = 0.1004 | 3.012
313.15 K, 101 kPa, x1 = 0.1518 | 4.689
313.15 K, 101 kPa, x1 = 0.2006 | 6.418
313.15 K, 101 kPa, x1 = 0.2528 | 8.113
313.15 K, 101 kPa, x1 = 0.2995 | 9.888
313.15 K, 101 kPa, x1 = 0.3928 | 12.22
313.15 K, 101 kPa, x1 = 0.5013 | 14.27
313.15 K, 101 kPa, x1 = 0.5995 | 15.84
313.15 K, 101 kPa, x1 = 0.6648 | 16.75
313.15 K, 101 kPa, x1 = 0.7981 | 17.67
313.15 K, 101 kPa, x1 = 0.8445 | 18.12
313.15 K, 101 kPa, x1 = 0.8998 | 18.44
313.15 K, 101 kPa, x1 = 0.954 | 18.69
318.15 K, 100 kPa, x2 = 0.014 | 15.91
318.15 K, 100 kPa, x2 = 0.05 | 15.2
318.15 K, 100 kPa, x2 = 0.094 | 14.73
318.15 K, 100 kPa, x2 = 0.112 | 15.13
318.15 K, 101 kPa, x1 = 0.05023 | 1.455
318.15 K, 101 kPa, x1 = 0.1004 | 2.621
318.15 K, 101 kPa, x1 = 0.1518 | 4.011
318.15 K, 101 kPa, x1 = 0.2006 | 5.421
318.15 K, 101 kPa, x1 = 0.2528 | 6.753
318.15 K, 101 kPa, x1 = 0.2995 | 8.235
318.15 K, 101 kPa, x1 = 0.3928 | 10.07
318.15 K, 101 kPa, x1 = 0.5013 | 11.79
318.15 K, 101 kPa, x1 = 0.5995 | 13.02
318.15 K, 101 kPa, x1 = 0.6648 | 13.73
318.15 K, 101 kPa, x1 = 0.7981 | 14.53
318.15 K, 101 kPa, x1 = 0.8445 | 14.92
318.15 K, 101 kPa, x1 = 0.8998 | 15.2
318.15 K, 101 kPa, x1 = 0.954 | 15.4
323.15 K, 100 kPa, x2 = 0.014 | 13.33
323.15 K, 100 kPa, x2 = 0.05 | 12.7
323.15 K, 100 kPa, x2 = 0.094 | 12.32
323.15 K, 100 kPa, x2 = 0.112 | 12.64
323.15 K, 101 kPa, x1 = 0.05023 | 1.295
323.15 K, 101 kPa, x1 = 0.1004 | 2.296
323.15 K, 101 kPa, x1 = 0.1518 | 3.473
323.15 K, 101 kPa, x1 = 0.2006 | 4.63
323.15 K, 101 kPa, x1 = 0.2528 | 5.724
323.15 K, 101 kPa, x1 = 0.2995 | 6.927
323.15 K, 101 kPa, x1 = 0.3928 | 8.441
323.15 K, 101 kPa, x1 = 0.5013 | 9.827
323.15 K, 101 kPa, x1 = 0.5995 | 10.84
323.15 K, 101 kPa, x1 = 0.6648 | 11.45
323.15 K, 101 kPa, x1 = 0.7981 | 12.09
323.15 K, 101 kPa, x1 = 0.8445 | 12.41
323.15 K, 101 kPa, x1 = 0.8998 | 12.64
323.15 K, 101 kPa, x1 = 0.954 | 12.8
